Tests used:
Human PKMYT1 = target: T1, Human PKMYT1 (Homo sapiens, UniProt Q99640); assay: PKMYT1 biochemical ADP-Glo enzymatic assay; details: ADP-Glo
T1 construct: Human PKMYT1 75-362 was cloned as a TEV cleavable 6xHis fusion; 6xHis (TEV cleavable) (cleaved yes); made in house; host or cells: bacterial cells
T1 sequence (Q99640 75-362): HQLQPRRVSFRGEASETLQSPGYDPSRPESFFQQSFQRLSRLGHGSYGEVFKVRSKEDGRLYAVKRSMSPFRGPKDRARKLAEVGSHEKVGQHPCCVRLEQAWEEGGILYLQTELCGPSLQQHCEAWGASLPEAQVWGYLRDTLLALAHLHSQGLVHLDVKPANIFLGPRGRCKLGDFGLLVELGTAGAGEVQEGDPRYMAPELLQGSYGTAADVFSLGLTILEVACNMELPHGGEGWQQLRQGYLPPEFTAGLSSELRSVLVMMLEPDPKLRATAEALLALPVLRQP
Summary of the method: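 IC50 values come from 10-point 3-fold series, with replicates required within 3-fold and r2 >0.9. ADP formed by PKMYT1 intrinsic ATPase (500 uM ATP, 60 min, 26° C.) was quantified by ADP-Glo luminescence. The enzyme was the TEV-cleaved kinase domain 75-362 at 15 nM, in HEPES pH 7.5 buffer.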

WEE1 = target: T2, WEE1 (Homo sapiens, UniProt P30291); assay: Selectivity versus WEE1 assay (ADP-Glo enzymatic assay); format: biochemical; details: for IC50: ADP-Glo; for PKMYT1 vs. WEE1 selectivity: fold difference in selectivity for PKMYT1 over WEE1
T2 construct: purchased Thermo Fisher PR7373A
Summary of the method: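 ADP-Glo luminescent read-out after a 60-min, 26 °C kinase reaction of 15 nM WEE1 with 30 µM ATP, in HEPES pH 7.5 buffer containing MgCl2, EGTA, Brij-35 and 1% DMSO. IC50 accepted only when replicate values agree within 3-fold and curve fit r2 exceeds 0.9.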

[1] = 15 nM PKMYT1 kinase domain, 500 µM ATP, 60 minutes at 26° C., banded
[2] = 15 nM WEE1, 60 minutes at 26° C., banded
[3] = banded, ">N" = at least in this band but could be higher
[4] = PKMYT1 kinase domain 15 nM, banded values

T2 sequence (P30291 whole entry): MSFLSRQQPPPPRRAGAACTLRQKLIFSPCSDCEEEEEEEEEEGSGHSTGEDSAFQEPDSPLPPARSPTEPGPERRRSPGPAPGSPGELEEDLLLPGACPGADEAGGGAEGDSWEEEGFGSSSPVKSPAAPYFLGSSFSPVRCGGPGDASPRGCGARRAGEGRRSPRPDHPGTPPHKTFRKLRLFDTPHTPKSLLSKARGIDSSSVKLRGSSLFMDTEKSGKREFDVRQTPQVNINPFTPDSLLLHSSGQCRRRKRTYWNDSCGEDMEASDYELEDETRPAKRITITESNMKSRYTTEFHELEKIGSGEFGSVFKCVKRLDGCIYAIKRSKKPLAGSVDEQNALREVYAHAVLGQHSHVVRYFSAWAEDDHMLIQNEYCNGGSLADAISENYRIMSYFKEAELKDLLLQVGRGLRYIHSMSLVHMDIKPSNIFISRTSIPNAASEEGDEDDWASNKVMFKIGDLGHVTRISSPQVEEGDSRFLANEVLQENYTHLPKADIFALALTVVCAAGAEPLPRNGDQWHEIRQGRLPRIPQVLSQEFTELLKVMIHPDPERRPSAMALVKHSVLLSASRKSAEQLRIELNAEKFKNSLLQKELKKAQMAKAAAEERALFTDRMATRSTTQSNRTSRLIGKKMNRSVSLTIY

Row | Structure (SMILES) | IC50 (Human PKMYT1; [1]) [µM] | IC50 (WEE1; [2]) [µM] | PKMYT1 vs. WEE1 selectivity (WEE1; [3]) | IC50 (Human PKMYT1; [4]) [µM] | IC50 (WEE1; WEE1 15 nM, banded values) [µM] | PKMYT1 vs. WEE1 selectivity (WEE1; banded)
1 | Cc1ccc(O)c(C)c1NC(=O)c1cnc(Nc2ccc(Nc3ccc(F)cc3)cn2)s1 [BAA-310, 2-((5-((4-fluorophenyl)amino)pyridin-2-yl)amino)-N-(3-hydroxy-2,6-dimethylphenyl)thiazole-5-carboxamide] | 0.05 to 1 | > 11 | X (100-<1000 fold) | – | – | –
2 | Cc1ccc(O)c(C)c1NC(=O)c1cnc(Nc2ccn(CC(=O)NCCN3CCCC3)n2)s1 [BAA-167] | 0.05 to 1 | > 11 | X (100-<1000 fold) | – | – | –
3 | Cc1c(O)ccc(Cl)c1NC(=O)c1cnc(Nc2ccn(C)n2)s1 [BAA-474, N-(6-Chloro-3-hydroxy-2-methyl-phenyl)-2-[(1-methylpyrazol-3-yl)amino]thiazole-5-carboxamide] | – | – | – | 0.05 to 1 | > 11 | X (100-<1000 fold)
4 | Cc1ccc(O)c(C)c1NC(=O)c1cnc(Nc2ccnn2C)s1 [BAA-010, N-(3-hydroxy-2,6-dimethyl-phenyl)-2-[(2-methylpyrazol-3-yl)amino]thiazole-5-carboxamide] | 0.05 to 1 | > 11 | Y (1000-5000 fold) | – | – | –
5 | CCN(C)C(=O)N1CC[C@@H](n2ccc(Nc3ncc(C(=O)Nc4c(C)ccc(O)c4C)s3)n2)C1 [BAA-111, 2-[[1-[(3R)-1-[Ethyl(methyl)carbamoyl]pyrrolidin-3-yl]pyrazol-3-yl]amino]-N-(3-hydroxy-2,6-dimethyl-phenyl)thiazole-5-carboxamide] | 0.05 to 1 | > 11 | >Y (1000-5000 fold) | – | – | –
6 | Cc1ccc(O)c(C)c1NC(=O)c1cnc(Nc2nc(C)c(Br)c(C)n2)s1 [BAA-295, 2-((5-bromo-4,6-dimethylpyrimidin-2-yl)amino)-N-(3-hydroxy-2,6-dimethylphenyl)thiazole-5-carboxamide] | 0.05 to 1 | > 11 | Y (1000-5000 fold) | – | – | –
7 | Cc1ccc(O)c(C)c1NC(=O)c1cnc(Nc2ccn(CC(=O)N3CCN(CC(F)(F)F)CC3)n2)s1 [BAA-184] | 0.05 to 1 | > 11 | >X (100-<1000 fold) | – | – | –
8 | Cc1ccc(O)c(C)c1NC(=O)c1cnc(Nc2ncc(F)cc2Cl)s1 [BAA-404, 2-((3-chloro-5-fluoropyridin-2-yl)amino)-N-(3-hydroxy-2,6-dimethylphenyl)thiazole-5-carboxamide] | – | – | – | < 0.05 | > 11 | Y (1000-5000 fold)
9 | Cc1ccc(O)c(C)c1NC(=O)c1cnc(NCC2CCN(C(=O)Cc3ccc(Cl)cc3)CC2)s1 [BAA-214, 2-[[1-[2-(4-chlorophenyl)acetyl]-4-piperidyl]methylamino]-N-(3-hydroxy-2,6-dimethyl-phenyl)thiazole-5-carboxamide] | 0.05 to 1 | > 11 | >X (100-<1000 fold) | – | – | –
10 | Cc1ccc(O)c(C)c1NC(=O)c1cnc(Nc2cc(C)n(CC(=O)N3CCN(C)CC3)n2)s1 [BAA-201] | < 0.05 | > 11 | X (100-<1000 fold) | – | – | –
11 | Cc1cn(CC(=O)N2CCN(C)CC2)nc1Nc1ncc(C(=O)Nc2c(C)ccc(O)c2C)s1 [BAA-205, N-(3-hydroxy-2,6-dimethyl-phenyl)-2-[[4-methyl-1-[2-(4-methylpiperazin-1-yl)-2-oxo-ethyl]pyrazol-3-yl]amino]thiazole-5-carboxamide] | < 0.05 | > 11 | Y (1000-5000 fold) | – | – | –
12 | Cc1ccc(O)c(C)c1NC(=O)c1cnc(Nc2cccc(C3=NCCO3)c2)s1 [BAA-461, 2-((3-(4,5-dihydrooxazol-2-yl)phenyl)amino)-N-(3-hydroxy-2,6-dimethylphenyl)thiazole-5-carboxamide] | – | – | – | < 0.05 | 1 to 11 | X (100-<1000 fold)
13 | Cc1ccc(O)c(C)c1NC(=O)c1cnc(Nc2cccc(C(=O)NC(C(C)C)C(F)(F)F)c2)s1 (stereo not drawn) [BAA-259, N-(3-hydroxy-2,6-dimethylphenyl)-2-((3-((1,1,1-trifluoro-3-methylbutan-2-yl)carbamoyl)phenyl)amino)thiazole-5-carboxamide] | 0.05 to 1 | > 11 | X (100-<1000 fold) | – | – | –
14 | Cc1ccc(O)c(C)c1NC(=O)c1cnc(Nc2cn(C)nc2C(F)(F)F)s1 [BAA-548, N-(3-hydroxy-2,6-dimethylphenyl)-2-((1-methyl-3-(trifluoromethyl)-1H-pyrazol-4-yl)amino)thiazole-5-carboxamide] | – | – | – | 0.05 to 1 | > 11 | X (100-<1000 fold)
15 | Cc1ccc(O)c(C)c1NC(=O)c1cnc(Nc2ccn(CC(=O)NC3CCCCC3)n2)s1 [BAA-193] | < 0.05 | > 11 | Y (1000-5000 fold) | – | – | –
16 | Cn1cc(Br)c(Nc2ncc(C(=O)Nc3c(F)ccc(O)c3Cl)s2)n1 [BAA-472, 2-((4-Bromo-1-methyl-1H-pyrazol-3-yl)amino)-N-(2-chloro-6-fluoro-3-hydroxyphenyl)thiazole-5-carboxamide] | – | – | – | < 0.05 | > 11 | X (100-<1000 fold)
17 | Cc1ccc(O)c(C)c1NC(=O)c1cnc(Nc2cccc(S(=O)(=O)N3CC(F)(F)C(F)(F)C3)c2)s1 [BAA-286, N-(3-hydroxy-2,6-dimethylphenyl)-2-((3-((3,3,4,4-tetrafluoropyrrolidin-1-yl)sulfonyl)phenyl)amino)thiazole-5-carboxamide] | 1 to 11 | > 11 | W (10-<100 fold) | – | – | –
18 | Cc1ccc(O)c(C)c1NC(=O)c1nnc(Nc2ccn(C3CCC3)n2)s1 [BAA-466, 5-((1-cyclobutyl-1H-pyrazol-3-yl)amino)-N-(3-hydroxy-2,6-dimethylphenyl)-1,3,4-thiadiazole-2-carboxamide] | – | – | – | 0.05 to 1 | > 11 | Y (1000-5000 fold)
19 | Cc1ccc(O)c(C)c1NC(=O)c1cnc(NCCNC(=O)OC(C)(C)C)s1 [BAA-068, tert-butyl N-[2-[5-[(3-hydroxy-2,6-dimethyl-phenyl)carbamoyl]thiazol-2-yllamino]ethyl]carbamate] | 0.05 to 1 | > 11 | >X (100-<1000 fold) | – | – | –
20 | Cc1ccc(O)c(C)c1NC(=O)c1cnc(Nc2ccn(C(F)F)n2)s1 [BAA-025, 2-[[1-(difluoromethyl)pyrazol-3-yl]amino]-N-(3-hydroxy-2,6-dimethyl-phenyl)thiazole-5-carboxamide] | 0.05 to 1 | > 11 | X (100-<1000 fold) | – | – | –
21 | Cc1ccc(O)c(C)c1NC(=O)c1cnc(Nc2cc(C)n(C(C)C(=O)N3CCCC3)n2)s1 (stereo not drawn) [BAA-508, N-(3-hydroxy-2,6-dimethylphenyl)-2-((5-methyl-1-(1-oxo-1-(pyrrolidin-1-yl)propan-2-yl)-1H-pyrazol-3-yl)amino)thiazole-5-carboxamide] | – | – | – | 0.05 to 1 | > 11 | W (10-<100 fold)
22 | COC1CCN(C(=O)Cn2cc(C)c(Nc3ncc(C(=O)Nc4c(C)ccc(O)c4C)s3)n2)C1 (stereo not drawn) [BAA-538, N-(3-hydroxy-2,6-dimethylphenyl)-2-((1-(2-(3-methoxypyrrolidin-1-yl)-2-oxoethyl)-4-methyl-1H-pyrazol-3-yl)amino)thiazole-5-carboxamide] | – | – | – | < 0.05 | 1 to 11 | X (100-<1000 fold)
23 | CCN(CCC#N)C(=O)Cn1cc(C)c(Nc2ncc(C(=O)Nc3c(C)ccc(O)c3C)s2)n1 [BAA-532, 2-((1-(2-((2-cyanoethyl)(ethyl)amino)-2-oxoethyl)-4-methyl-1H-pyrazol-3-yl)amino)-N-(3-hydroxy-2,6-dimethylphenyl)thiazole-5-carboxamide] | – | – | – | < 0.05 | 1 to 11 | X (100-<1000 fold)
24 | Cc1ccc(O)c(C)c1NC(=O)c1cnc(Nc2ccnn2CCN)s1 [BAA-260, 2-((1-(2-aminoethyl)-1H-pyrazol-5-yl)amino)-N-(3-hydroxy-2,6-dimethylphenyl)thiazole-5-carboxamide] | 0.05 to 1 | > 11 | W (10-<100 fold) | – | – | –
25 | Cc1ccc(O)c(C)c1NC(=O)c1cnc(Nc2ccn([C@H]3CCN(C(=O)OC(C)(C)C)C3)n2)s1 [BAA-042] | 0.05 to 1 | > 11 | >X (100-<1000 fold) | – | – | –
26 | Cc1ccc(O)c(C)c1NC(=O)c1cnc(Nc2ccn([C@@H]3CCN(C(=O)Cn4cccn4)C3)n2)s1 [BAA-103, N-(3-hydroxy-2,6-dimethyl-phenyl)-2-[1-[(3R)-1-(2-pyrazol-1-ylacetyl)pyrrolidin-3-yl]pyrazol-3-yllamino]thiazole-5-carboxamide] | 0.05 to 1 | > 11 | >X (100-<1000 fold) | – | – | –
